Measurements as given in patent US11933781B2, “Fibrosis model and methods of use thereof” (The Regents of the University of Colorado, priority 2020, dated 2024).

What was measured:
Format in all cases: cell-based, human
[1] = test system: control HBECs; test: Immunofluorescence of Ki67 and YAP in control HBECs
Experimental: Immunofluorescence staining: Cells were fixed with 4% paraformaldehyde in PBS with calcium and magnesium for 30 minutes at room temperature. Cells were then washed with PBS and subsequently permeabilized (Triton™-X, at 0.1%) and blocked with 5% bovine serum albumin in PBS for 1 hour at room temperature. Cells were then incubated for >16 hours at 4 degrees with primary antibodies. Primary antibodies were aspirated, and cells were washed with PBS+0.1% Tween-20 at room temperature. Cells were then incubated for 1 hour at room temperature with secondary antibodies (1:500) and/or Phalloidin-iFluor™ 488 1:2000. Cells were stained with 4′,6-diamidino-2-phenylindole at 1:20000 (BioLegend®, San Diego, California, 422801). Subsequently, transwell membranes, or hydrogels, were removed from the well and mounted on glass slides with Fluoromount-G® (SouthernBiotech™, Birmingham, Alabama, 0100-01). Slides were then visualized using an Olympus BX63 microscope (Olympus, Tokyo, Japan).
Immunofluorescence and cell number quantification for HBEC experiments: For total fluorescence quantification (i.e., ERBB2), all images were processed in the same manner with the same microscopy settings. To determine mean fluorescence the channel of interest was separated in ImageJ, and the mean gray value was measured for the field of view and normalized by the total number of cells. Cell counting was achieved by taking 40×images and manually counting all nuclei in a field of view (approximately 200-300). The number of cells also expressing the marker of interested were then counted and normalized by the total number of cells per field. For each experiment a biological n≥3 was used with at least 5 fields of view per well and at least 2 wells being counted in total per donor.

[2] = test system: control HBECs; test: Barrier function (TEER) of control HBECs
Experimental: Barrier function measurements: The transepithelial electrical resistance (TEER) was assessed utilizing the Millicell® ERS-2 Voltohmeter (MilliporeSigma™, Burlington, Massachusetts, MERS00002). Briefly, cells were incubated with PBS with calcium and magnesium (at 37 degrees for 20 minutes prior to barrier measurement). The probe was inserted, and the resultant ohm reading was recorded. The final value was calculated by:
This value was subtracted by 100 (the resistance of a blank well) and multiplied by 0.33 (the surface area of a single well in a 24 well plate). A minimum of 3 wells were recorded per donor per treatment condition. These values were subsequently averaged per treatment and graphed.

[3] = test system: control HBECs; test: Induced unjamming of control HBECs at air-liquid interface (live cell imaging, cell shape)
Description: Epithelial Cell Culture: Primary human bronchial epithelial cells (HBECs) were obtained from two sources (1) provided by Dr. Hong Wei Chu at National Jewish Health, or (2) lung transplant collection at the University of Colorado Hospital (IRB protocol: 11-1664 or 18-0572). Epithelial cells from bronchial brushes or CT-guided dissection were expanded to passage 2 before being cultured at air liquid interface (ALI). Control (N=11), IPF (N=6), and COPD (N=3) were age matched and controls had no history of chronic lung disease (Table 1). Cells were seeded on 24-Transwell plates (Corning, Corning, New York, 3470) coated with type I collagen (Corning, Corning, New York, 354236) and maintained under submerged conditions for five to seven days until the cells reached confluence. Culture media was a 1:1 mixture of DMEM and BEBM (Lonza, Basel, Switzerland, CC170) supplemented with retinoic acid (Sigma-Aldrich, Germany, R-2625) nystatin (Sigma-Aldrich, Germany N1638), and bovine serum albumin (FisherSci, Thermo Fisher Scientific, Waltham, Massachusetts BP9703100). Once confluent, apical media was removed and maintained at ALI. HBECs began recapitulating the in vivo airway, with production of mucus (6-9 days after establishing ALI) and development of a pseudostratified epithelium. Cells were switched to a starvation media (lacking supplemental epidermal growth factor, hydrocortisone, and bovine pituitary extract) 24 hours prior to experimentation.
For inhibitor, activator, and ligand treatments HBECs were cultured in a starvation media in the absence of EGF, hydrocortisone, and bovine pituitary extract for 24 hours prior to treatment initiation. Cells were then treated for 2-4 hours (with exception of AREG neutralizing antibody which was maintained in the culture media), media was aspirated, the wells were washed with warm PBS and then replaced with fresh starvation media without inhibitor/activator/ligand present, and subsequently imaged. For experiments that required subsequent media changes (96 hour) cells fresh starvation media was changed 48 hours afterwards.
Live Cell Imaging and Dynamics Measurement: To assess cellular dynamics, time-lapse microscopy and subsequent analysis were completed. Two imaging schemes were utilized: (1) images were taken every 5 minutes for 200 minutes during HBEC differentiation; (2) images were taken every 20 minutes for 48, 96, or 144 hours after HBEC experimental intervention. Phase contrast images were acquired on a Keyence BZ-X810 with a stage incubator (37° C., 5% CO2). Dynamic analysis followed previously published workflows (10-12, 22). Briefly, using phase contrast images instantaneous velocities were mapped by particle image velocimetry utilizing open source PIVLab on MATLAB. Velocity fields were obtained with 2 passes (64×64 and 32×32 pixel size interrogation window with 50% overlap) with a pixel size of 0.75488 μm using a Fast Fourier Transformation method. Trajectories from the PIV were seeded onto a grid and obtained via forward-integration of subsequent fields. These values were then used to determine mean-squared-displacement (MSD) and self-overlap order parameter (Q): MSD(Δt)= ? ri(t+Δt)−ri(t)|2 ? and Q(Δt)=N−1ΣwiNi=1 as previously published. Instantaneous room mean squared velocity (VRMS) of the monolayer was obtained as previously published: VRMS(t)=√1MΣ ? |v(t)2 ? jMj=1
Cell Shape Analysis: Cell shape measurements were achieved via cell border delineation by F-actin immunofluorescence. Images were segmented utilizing SeedWater Segmenter. Similar to previously published workflows, we segmented images which were subsequently analyzed in ImageJ for the shape index (q=Perimeter√Area) and aspect ratio (major and minor axis) for all cells within a given field of view. For each experimental condition an n≥3 was used with at least 3 independent wells per donor per treatment condition. […]

[4] = control HBECs, 48 hours after treatment
[5] = control HBECs by MUC5B promoter variant status

AREG: Recombinant amphiregulin, low affinity EGFR ligand (R&D Systems 262-AR)
cell type showing YAP nuclear localization ([1]; control HBECs after treatment): predominantly in multi-ciliated cells (FOXJ1+) | YAP nuclear localization [1, 4]: did lead to YAP nuclear localization | proliferation (Ki67+) [1, 4]: neither AREG nor XMU treatment resulted in increased proliferation | barrier function in genotype-dependent unjamming ([2]; control HBECs GG or GT): did not alter barrier function | barrier function (TEER) after treatment ([2]; control HBECs at ALI day 14): without diminishing barrier function | ability to induce an unjammed state in control epithelia ([3]; control HBECs at ALI day 14): only AREG treatment had the ability to induce an unjammed state | persistence in the unjammed state, rs35705950 GT vs GG epithelia [3, 5]: persisted in the unjammed state significantly longer than GG epithelia | root-mean-squared velocity, rs35705950 GT vs GG epithelia [3, 5]: higher root-mean-squared velocity than their GG counterparts | induction of unjammed state in mature monolayer ([3]; control HBECs treated at ALI day 28): unjammed state was induced regardless of monolayer maturity | time at which migratory capacity of control epithelia begins to diminish ([3]; treatment at day 14 of ALI): ~36 h
